Converted amounts (≈) assume the structure as drawn. The source made the active and inactive calls. No cut-off for these calls is given here.
How the values were obtained:
Rattus norvegicus [1] = experiment: Anti-autoimmune disease activity in OFA rat model of T-cell dependent B cell response assessed as reduction in SRBC-induced IgM producing B cells at 3 mg/kg, po QD for 4 days starting 2 days prior to immunization by ex vivo plaque forming assay relative to control; assay type: functional; details: 96 h, read-out: INH, time 4 day
Procathepsin L = Procathepsin L (Homo sapiens, UniProt P07711); experiment: Inhibition of cathepsin L (unknown origin)
OCI-Ly3 [2] = experiment: Inhibition of ROS production in human OCILY3 cells
Cathepsin B = Cathepsin B (Homo sapiens, UniProt P07858); experiment: Inhibition of cathepsin B (unknown origin)
[3] = Protein binding in human plasma; assay type: ADME, cell-free; details: read-out: PPB (converted)
Rattus norvegicus [4] = experiment: Anti-autoimmune disease activity in OFA rat model of T-cell dependent B cell response assessed as reduction in SRBC-induced IgM producing B cells at 0.3 mg/kg, po QD for 4 days starting 2 days prior to immunization by ex vivo plaque forming assay relative to control; assay type: functional; details: 96 h, read-out: INH, time 4 day
[5] = Cmax in Sprague-Dawley rat at 3 mg/kg, po; assay type: ADME, organism-based; set-up: route oral, dose 3 mg/kg; details: in vivo
Cytochrome P450 2C9 = Cytochrome P450 2C9 (Homo sapiens, UniProt P11712); experiment: Inhibition of CYP2C9 (unknown origin)
[6] = Cmax in blood of OFA rat model of T-cell dependent B cell response at 3 mg/kg, po QD for 4 days starting 2 days prior to immunization and measured after 24 hrs; assay type: ADME, organism-based; set-up: route oral, dose 3 mg/kg, time 5 day
Cathepsin K = target: T1, Cathepsin K (Homo sapiens, UniProt P43235); experiment: Inhibition of cathepsin K (unknown origin)
T1 sequence (P43235 whole entry): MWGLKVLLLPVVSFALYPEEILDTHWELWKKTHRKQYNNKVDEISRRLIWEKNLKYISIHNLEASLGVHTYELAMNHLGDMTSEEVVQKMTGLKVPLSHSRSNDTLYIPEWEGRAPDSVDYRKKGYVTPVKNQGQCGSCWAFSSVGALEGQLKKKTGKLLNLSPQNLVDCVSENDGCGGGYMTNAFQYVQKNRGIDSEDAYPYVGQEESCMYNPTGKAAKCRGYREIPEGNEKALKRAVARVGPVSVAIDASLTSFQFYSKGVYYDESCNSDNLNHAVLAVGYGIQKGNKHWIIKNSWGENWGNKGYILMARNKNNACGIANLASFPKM

BJAB [7] = experiment: Growth inhibition of human BJAB cells grown in soft agar
OCI-Ly3 [8] = experiment: Growth inhibition of human OCILY3 cells grown in soft agar
[9] = Toxicity in SCID-bg mouse xenografted with human OCILY3 cells assessed as effect on body weight at 30 mg/kg, po BID for 49 days; assay type: organism-based; details: in vivo, 1176 h, time 49 day
Cathepsin S = Cathepsin S (Homo sapiens, UniProt P25774); experiment: Inhibition of cathepsin S (unknown origin)
[10] = Cmax in blood of OFA rat model of T-cell dependent B cell response at 1 mg/kg, po QD for 4 days starting 2 days prior to immunization and measured after 24 hrs; assay type: ADME, organism-based; set-up: route oral, dose 1 mg/kg, time 5 day
[11] = Cmax in blood of OFA rat model of T-cell dependent B cell response at 0.3 mg/kg, po QD for 4 days starting 2 days prior to immunization and measured after 3 hrs; assay type: ADME, organism-based; set-up: route oral, time 4 day, dose 0.3 mg/kg
[12] = Oral bioavailability in Sprague-Dawley rat at 3 mg/kg; assay type: ADME, organism-based; details: in vivo
Cytochrome P450 3A4 = Cytochrome P450 3A4 (Homo sapiens, UniProt P08684); experiment: Inhibition of CYP3A4 (unknown origin)
[13] = target: Voltage-gated inwardly rectifying potassium channel KCNH2 (Homo sapiens, UniProt Q12809); experiment: Inhibition of human ERG by dofetilide binding assay
Dipeptidyl peptidase 1 = Dipeptidyl peptidase 1 (Homo sapiens, UniProt P53634); experiment: Inhibition of cathepsin C (unknown origin)
OCI-Ly3 [14] = experiment: Antitumor activity against human OCILY3 cells xenografted in SCID-bg mouse assessed as tumor regression level at 30 mg/kg, po BID for 49 days; assay type: functional; details: time 49 day
[15] = Terminal half life in Balb/C mouse at 1 mg/kg, iv; assay type: ADME, organism-based; details: in vivo, read-out: beta t1/2 (converted)
[16] = Apparent volume of distribution at steady state in Sprague-Dawley rat at 1 mg/kg, iv; assay type: ADME, organism-based; details: in vivo, read-out: Vdss(app)
Cytochrome P450 2D6 = Cytochrome P450 2D6 (Homo sapiens, UniProt P10635); experiment: Inhibition of CYP2D6 (unknown origin)
Rattus norvegicus [17] = experiment: Anti-autoimmune disease activity in OFA rat model of T-cell dependent B cell response assessed as reduction in SRBC-induced IgM producing B cells dosed orally once daily for 4 days starting 2 days prior to immunization by ex vivo plaque forming assay relative to control; assay type: functional
Caspase-3 = target: T2, Caspase-3 (Homo sapiens, UniProt P42574); experiment: Inhibition of caspase-3 (unknown origin)
T2 sequence (P42574 whole entry): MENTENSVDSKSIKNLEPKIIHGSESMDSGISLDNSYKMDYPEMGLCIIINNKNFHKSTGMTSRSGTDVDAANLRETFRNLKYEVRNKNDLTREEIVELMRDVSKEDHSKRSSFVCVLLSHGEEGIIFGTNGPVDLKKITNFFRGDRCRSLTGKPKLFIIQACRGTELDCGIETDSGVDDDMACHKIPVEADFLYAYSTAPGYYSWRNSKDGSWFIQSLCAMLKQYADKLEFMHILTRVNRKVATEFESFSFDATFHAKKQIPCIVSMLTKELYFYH

[18] = Lipophilicity, logP of the compound; details: octanol/water
OCI-Ly3 [19] = experiment: Antitumor activity against human OCILY3 cells xenografted in SCID-bg mouse assessed as tumor regression level at 30 mg/kg, po BID for 53 days; assay type: functional; details: time 53 day
OCI-Ly3 [20] = experiment: Antitumor activity against human OCILY3 cells xenografted in SCID-bg mouse assessed as inhibition of tumor growth by measuring T/C ratio at 30 mg/kg, po QD for 49 days; assay type: functional; details: time 49 day
BJAB [21] = experiment: Growth inhibition of human BJAB cells grown in soft agar at 19.5 to 10000 nM; assay type: functional, cell-based; details: dose nM 19.5-10000
[22] = Apparent volume of distribution at steady state in Balb/C mouse at 1 mg/kg, iv; assay type: ADME, organism-based; details: in vivo, read-out: Vdss(app)
[23] = Clearance in Balb/C mouse at 1 mg/kg, iv; assay type: ADME, organism-based; details: in vivo
[24] = Toxicity in SCID-bg mouse xenografted with human OCILY3 cells assessed as effect on body weight at 30 mg/kg, po QD for 49 days; assay type: organism-based; details: in vivo, 1176 h, time 49 day
[25] = Apparent permeability from apical to basolateral side in human Caco-2 cells
[26] = Cmax in blood of OFA rat model of T-cell dependent B cell response at 3 mg/kg, po QD for 4 days starting 2 days prior to immunization and measured after 3 hrs; assay type: ADME, organism-based; set-up: route oral, dose 3 mg/kg, time 4 day
[27] = Cmax in blood of OFA rat model of T-cell dependent B cell response at 0.3 mg/kg, po QD for 4 days starting 2 days prior to immunization and measured after 24 hrs; assay type: ADME, organism-based; set-up: route oral, dose 0.3 mg/kg, time 5 day
[28] = AUC (0 to 24 hrs) in Balb/C mouse at 3 mg/kg, po; assay type: ADME, organism-based; set-up: time < 24 hr, route oral, dose 3 mg/kg; details: in vivo
[29] = Terminal half life in Sprague-Dawley rat at 1 mg/kg, iv; assay type: ADME, organism-based; details: in vivo, read-out: beta t1/2 (converted)
[30] = AUC (0 to 24 hrs) in Sprague-Dawley rat at 3 mg/kg, po; assay type: ADME, organism-based; set-up: time < 24 hr, route oral, dose 3 mg/kg; details: in vivo
[31] = Intrinsic clearance in human liver microsomes; assay type: ADME, Microsome; details: read-out: CLH
[32] = Clearance in Sprague-Dawley rat at 1 mg/kg, iv; assay type: ADME, organism-based; details: in vivo
[33] = Protein binding in rat plasma; assay type: ADME, cell-free; details: read-out: PPB (converted)
[34] = Intrinsic clearance in rat liver microsomes; assay type: ADME, Microsome; details: read-out: CLH
[35] = Cmax in Balb/C mouse at 3 mg/kg, po; assay type: ADME, organism-based; set-up: route oral, dose 3 mg/kg; details: in vivo
OCI-Ly3 [36] = experiment: Growth inhibition of human OCILY3 cells grown in soft agar at 19.5 to 10000 nM; assay type: functional, cell-based; details: dose nM 19.5-10000
TMD8 = experiment: Inhibition of IL-10 production in tumor of CD79B-mutant containing human TMD8 cells xenografted in SCID-bg mouse at 30 mg/kg, po administered as single dose; assay type: functional, organism-based
[37] = Oral bioavailability in Balb/C mouse at 3 mg/kg; assay type: ADME, organism-based; details: in vivo
[38] = Cmax in blood of OFA rat model of T-cell dependent B cell response at 1 mg/kg, po QD for 4 days starting 2 days prior to immunization and measured after 3 hrs; assay type: ADME, organism-based; set-up: route oral, dose 1 mg/kg, time 4 day
OCI-Ly3 [39] = experiment: Antitumor activity against human OCILY3 cells xenografted in SCID-bg mouse assessed as inhibition of tumor growth by measuring T/C ratio at 30 mg/kg, po QD for 53 days; assay type: functional, organism-based; details: time 53.0 day
[40] = Intrinsic clearance in mouse liver microsomes; assay type: ADME, Microsome; details: read-out: CLH
[41] = Thermodynamic solubility of the compound

Sequence of Dipeptidyl peptidase 1 (P53634 25-134 limits assumed): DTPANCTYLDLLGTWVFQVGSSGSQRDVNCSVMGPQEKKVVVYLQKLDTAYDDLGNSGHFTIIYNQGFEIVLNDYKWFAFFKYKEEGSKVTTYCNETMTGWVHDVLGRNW
Sequence of Dipeptidyl peptidase 1 (P53634 231-394 limits assumed): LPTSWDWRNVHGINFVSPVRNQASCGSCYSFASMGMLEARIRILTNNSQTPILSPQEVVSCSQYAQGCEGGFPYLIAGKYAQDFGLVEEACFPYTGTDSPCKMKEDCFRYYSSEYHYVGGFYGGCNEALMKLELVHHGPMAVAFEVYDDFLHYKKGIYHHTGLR
Sequence of Dipeptidyl peptidase 1 (P53634 395-463 limits assumed): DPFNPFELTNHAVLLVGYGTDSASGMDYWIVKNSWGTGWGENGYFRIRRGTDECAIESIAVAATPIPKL
Sequence of Cathepsin S (P25774 whole entry): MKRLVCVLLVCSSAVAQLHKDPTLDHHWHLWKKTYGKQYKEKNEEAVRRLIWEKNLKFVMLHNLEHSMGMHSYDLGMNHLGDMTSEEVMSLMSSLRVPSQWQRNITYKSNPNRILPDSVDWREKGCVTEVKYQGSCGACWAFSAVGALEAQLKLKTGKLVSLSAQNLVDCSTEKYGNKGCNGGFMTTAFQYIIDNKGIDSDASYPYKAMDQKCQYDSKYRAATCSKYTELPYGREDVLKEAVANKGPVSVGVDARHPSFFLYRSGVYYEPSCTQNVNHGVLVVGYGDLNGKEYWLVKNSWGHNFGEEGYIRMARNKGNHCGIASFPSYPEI
Sequence of Cytochrome P450 2D6 (P10635 whole entry): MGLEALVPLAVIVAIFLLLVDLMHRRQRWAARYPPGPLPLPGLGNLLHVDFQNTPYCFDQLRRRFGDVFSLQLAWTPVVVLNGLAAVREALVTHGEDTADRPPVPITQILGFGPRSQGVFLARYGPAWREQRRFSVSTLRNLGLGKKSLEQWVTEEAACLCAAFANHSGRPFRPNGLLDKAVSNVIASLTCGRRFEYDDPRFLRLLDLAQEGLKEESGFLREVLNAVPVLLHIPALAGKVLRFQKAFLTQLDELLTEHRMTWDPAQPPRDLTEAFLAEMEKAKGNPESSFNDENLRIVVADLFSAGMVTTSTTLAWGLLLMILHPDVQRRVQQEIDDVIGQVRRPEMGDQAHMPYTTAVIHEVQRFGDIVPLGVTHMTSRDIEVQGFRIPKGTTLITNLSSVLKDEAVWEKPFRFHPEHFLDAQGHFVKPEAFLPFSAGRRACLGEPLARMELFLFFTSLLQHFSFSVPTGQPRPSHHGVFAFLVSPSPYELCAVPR
Sequence of Voltage-gated inwardly rectifying potassium channel KCNH2 (Q12809 whole entry): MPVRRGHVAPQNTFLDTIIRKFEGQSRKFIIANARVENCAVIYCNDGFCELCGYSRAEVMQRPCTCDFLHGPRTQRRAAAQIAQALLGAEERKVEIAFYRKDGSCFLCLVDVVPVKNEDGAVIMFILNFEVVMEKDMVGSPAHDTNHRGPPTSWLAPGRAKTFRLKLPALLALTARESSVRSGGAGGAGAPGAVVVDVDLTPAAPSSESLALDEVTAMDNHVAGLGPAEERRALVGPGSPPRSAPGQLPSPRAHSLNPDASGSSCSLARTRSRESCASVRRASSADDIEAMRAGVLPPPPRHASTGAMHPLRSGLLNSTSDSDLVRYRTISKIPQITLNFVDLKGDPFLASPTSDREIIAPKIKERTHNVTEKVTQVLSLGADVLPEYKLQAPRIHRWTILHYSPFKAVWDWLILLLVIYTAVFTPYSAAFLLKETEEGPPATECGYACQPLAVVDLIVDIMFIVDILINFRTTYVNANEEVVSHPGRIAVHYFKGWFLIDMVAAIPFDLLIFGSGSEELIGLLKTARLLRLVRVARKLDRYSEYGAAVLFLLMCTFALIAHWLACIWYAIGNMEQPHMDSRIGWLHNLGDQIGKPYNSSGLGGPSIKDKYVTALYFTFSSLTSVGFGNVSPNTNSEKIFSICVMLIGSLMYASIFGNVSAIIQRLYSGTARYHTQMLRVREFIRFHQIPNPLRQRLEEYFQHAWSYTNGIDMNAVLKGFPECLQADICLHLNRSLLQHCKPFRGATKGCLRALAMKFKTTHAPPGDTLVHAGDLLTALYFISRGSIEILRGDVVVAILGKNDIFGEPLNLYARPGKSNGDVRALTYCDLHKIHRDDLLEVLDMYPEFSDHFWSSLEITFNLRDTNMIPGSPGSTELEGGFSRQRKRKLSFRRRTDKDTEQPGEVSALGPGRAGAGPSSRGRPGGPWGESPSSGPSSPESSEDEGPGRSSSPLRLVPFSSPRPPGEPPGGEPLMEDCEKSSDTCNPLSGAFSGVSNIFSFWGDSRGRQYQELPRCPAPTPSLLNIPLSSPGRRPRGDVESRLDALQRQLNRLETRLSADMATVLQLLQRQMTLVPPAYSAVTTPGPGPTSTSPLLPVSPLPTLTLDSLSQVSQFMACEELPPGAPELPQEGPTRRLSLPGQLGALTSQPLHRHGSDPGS
Sequence of Procathepsin L (P07711 whole entry): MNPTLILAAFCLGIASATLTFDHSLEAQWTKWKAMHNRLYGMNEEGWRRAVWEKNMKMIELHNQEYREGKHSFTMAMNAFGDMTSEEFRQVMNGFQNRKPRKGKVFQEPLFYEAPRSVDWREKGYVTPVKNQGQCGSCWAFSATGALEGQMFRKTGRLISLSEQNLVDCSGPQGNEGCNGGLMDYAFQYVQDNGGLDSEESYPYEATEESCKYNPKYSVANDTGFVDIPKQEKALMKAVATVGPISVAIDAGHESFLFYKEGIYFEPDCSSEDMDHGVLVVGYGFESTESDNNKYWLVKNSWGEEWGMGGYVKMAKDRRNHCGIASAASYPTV
Sequence of Cytochrome P450 3A4 (P08684 whole entry): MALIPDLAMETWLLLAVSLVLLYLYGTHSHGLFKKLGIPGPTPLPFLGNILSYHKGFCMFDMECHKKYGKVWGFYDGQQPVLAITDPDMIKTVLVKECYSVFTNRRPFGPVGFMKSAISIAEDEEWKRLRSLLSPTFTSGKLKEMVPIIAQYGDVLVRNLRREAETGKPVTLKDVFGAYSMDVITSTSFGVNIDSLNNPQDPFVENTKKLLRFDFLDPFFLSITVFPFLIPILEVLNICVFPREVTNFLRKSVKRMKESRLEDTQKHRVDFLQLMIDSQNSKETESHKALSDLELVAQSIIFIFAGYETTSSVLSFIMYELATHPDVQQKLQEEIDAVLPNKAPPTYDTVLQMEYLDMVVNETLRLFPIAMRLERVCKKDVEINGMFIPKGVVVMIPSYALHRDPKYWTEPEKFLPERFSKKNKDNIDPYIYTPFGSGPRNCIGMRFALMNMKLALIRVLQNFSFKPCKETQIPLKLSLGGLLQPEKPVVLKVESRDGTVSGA
Sequence of Cytochrome P450 2C9 (P11712 whole entry): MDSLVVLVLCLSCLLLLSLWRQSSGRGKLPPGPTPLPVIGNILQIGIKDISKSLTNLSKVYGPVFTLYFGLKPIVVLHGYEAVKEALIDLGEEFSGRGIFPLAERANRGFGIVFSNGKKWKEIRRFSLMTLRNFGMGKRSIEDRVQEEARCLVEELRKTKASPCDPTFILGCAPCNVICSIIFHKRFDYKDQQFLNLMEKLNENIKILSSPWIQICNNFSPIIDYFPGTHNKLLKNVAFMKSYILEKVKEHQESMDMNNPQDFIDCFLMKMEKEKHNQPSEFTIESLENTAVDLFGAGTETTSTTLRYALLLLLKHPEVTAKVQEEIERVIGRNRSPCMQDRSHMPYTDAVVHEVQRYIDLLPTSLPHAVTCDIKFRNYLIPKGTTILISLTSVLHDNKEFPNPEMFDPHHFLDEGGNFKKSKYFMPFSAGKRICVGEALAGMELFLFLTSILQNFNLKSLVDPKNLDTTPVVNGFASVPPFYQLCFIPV

SMILES: CO[C@@H](C)c1c(NC(=O)Nc2cnc(-n3nccn3)c(Cl)c2)cnc2cc(Cl)nn12
- inhibition in vivo at 3 mg/kg (Rattus norvegicus [1]): 97%
- IC50 (Procathepsin L): > 100 µM
- IC50 (OCI-Ly3 [2]): 0.03 µM
- IC50 (Cathepsin B): > 100 µM
- fraction unbound [3]: 0.017
- inhibition in vivo at 0.3 mg/kg (Rattus norvegicus [4]): 58%
- Cmax [5]: 700 nM
- IC50 (Cytochrome P450 2C9): > 20 µM
- Cmax [6]: 1000 nM
- IC50 (Cathepsin K): > 100 µM
- IC50 (BJAB [7]): > 10 µM
- IC50 (OCI-Ly3 [8]): 0.24 µM
- Activity [9]: Non-Toxic
- IC50 (Cathepsin S): > 100 µM
- Cmax [10]: 260 nM
- Cmax [11]: 130 nM
- bioavailability [12]: 79%
- IC50 (Cytochrome P450 3A4): > 20 µM
- IC50 [13]: > 30 µM
- IC50 (Dipeptidyl peptidase 1): > 100 µM
- Activity (OCI-Ly3 [14]): -20%
- half-life [15]: 3.7 h
- Vd [16]: 4.2 L/kg
- IC50 (Cytochrome P450 2D6): > 20 µM
- ED50 (Rattus norvegicus [17]; po, 96 h, time 4 day): 0.3 mg/kg
- Activity (Rattus norvegicus [17]; time 4.0 day): Dose-dependent effect
- IC50 (Caspase-3): > 100 µM
- logP [18]: 3.4
- Activity (OCI-Ly3 [19]): -50%
- T/C (OCI-Ly3 [20]): 32%
- growth inhibition (GI) (BJAB [21]): inactive
- Vd [22]: 1.4 L/kg
- clearance [23]: 5 mL/min/kg
- Activity [24]: Non-Toxic
- Papp A→B [25]: 12.8 ×10⁻⁶ cm/s
- Cmax [26]: 2300 nM
- Cmax [27]: 50 nM
- AUC [28]: 20.1 µM·h
- half-life [29]: 8.5 h
- AUC [30]: 13.2 µM·h
- microsomal CLint [31]: < 25 µL/min/mg
- clearance [32]: 7 mL/min/kg
- fraction unbound [33]: 0.03
- microsomal CLint [34]: < 25 µL/min/mg
- Cmax [35]: 1700 nM
- growth inhibition (GI) (OCI-Ly3 [36]): Dose-dependent effect
- inhibition (TMD8): Active
- bioavailability [37]: 83%
- Cmax [38]: 670 nM
- Activity (OCI-Ly3 [39]): Active
- microsomal CLint [40]: < 25 µL/min/mg
- solubility thermodynamic [41]: 4 µg/mL (≈ 8.92 µM)

— ChEMBL document CHEMBL4699655, “Optimization of the In Vivo Potency of Pyrazolopyrimidine MALT1 Protease Inhibitors by Reducing Metabolism and Increasing Potency in Whole Blood” (J Med Chem, 2020)
